# Laboratory results published in patent publication US9889146B2, “Benzoxaborole compounds and uses thereof” (priority 2012, dated 2018).
# Several values for one entry are separate records, joined by “and”; a condition that tells them apart may be missing. Equal values may be shown once. Read-outs that look alike come from different tables or passages of the source.
# Assays:
# Format in all cases: cell-based
# E. coli (ESBL) = experiment: microbe, parasite or virus in culture; conditions: Escherichia coli
# Klebsiella spp. (KPC) = experiment: microbe, parasite or virus in culture; conditions: Klebsiella
# [1] = tested on: Enterobacter aerogenes (WT); experiment: microbe, parasite or virus in culture; conditions: Klebsiella aerogenes, Enterobacter aerogenes (WT)
# [2] = tested on: Enterobacter cloacae (WT); experiment: microbe, parasite or virus in culture
# [3] = tested on: Enterobacter cloacae (AmpC); experiment: microbe, parasite or virus in culture; conditions: Enterobacter cloacae
# Proteus mirabilis (WT) = experiment: microbe, parasite or virus in culture; conditions: Proteus mirabilis (WT)
# E. coli ATCC 25922 = experiment: Spontaneous frequency of resistance; conditions: 10 X MIC, 24 h
# Outline: (§1)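 Resistant mutants selected by plating varying inocula on MHBII noble agar with 4× or 10× MIC of GSK2251052, 24 and 48 h at 37 °C; resistance confirmed by regrowth on drug plates. Frequency = resistant colonies ÷ total cells plated, counted from dilutions of overnight culture on LB.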
# K. pneumoniae ATCC 13883 = experiment: Spontaneous frequency of resistance; conditions: 4 X MIC, 24 h
# Outline: as §1
# P. aeruginosa ATCC 27853 = experiment: Spontaneous frequency of resistance; conditions: 24 h
# Outline: as §1
# [4] = tested on: E. coli ATCC 25922 wild type and mutants; experiment: MIC, wild type and GSK2251052 resistant mutants; conditions: Escherichia coli
# Outline: (§2)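 MICs were determined following CLSI M7-A7 recommendations for aerobic bacteria. Strains were E. coli ATCC 25922, K. pneumoniae ATCC 13883, P. aeruginosa ATCC 27853 and six to ten laboratory-selected GSK2251052-resistant colonies of each, carrying mutations in the LeuRS editing domain.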
# [5] = tested on: K. pneumoniae ATCC 13883 wild type and mutants; experiment: MIC, wild type and GSK2251052 resistant mutants; conditions: Klebsiella pneumoniae
# Outline: as §2
# [6] = tested on: P. aeruginosa ATCC 27853 wild type and mutants; experiment: MIC, wild type and GSK2251052 resistant mutants; conditions: Pseudomonas aeruginosa
# Outline: as §2
# [7] = tested on: E. coli clinical isolates from subject E. coli 2; experiment: GSK2251052 MIC of clinical isolates, subject E. coli 2; conditions: for MIC: Escherichia coli, read-out: GSK2251052 MIC GSK results
# Description: Minimum inhibitory concentrations (MICs) were determined using the CLSI (Clinical and Laboratory Standards Institute, formerly NCCLS) recommended broth microdilution methodology [NCCLS, 2003] using defined media.
# Almost all clinical isolates were determined to contain T247I in addition to a second mutation in editing domains 1 or 2. The second mutations include Asp251Asn, Ala323 Val, Arg344Cys/His and Asp345Ala. On Day 11 and at Follow Up a double mutant (R344H; D345A) was also isolated (see Table 14). For these clinical isolates, five independent colonies were characterized from day 6 to late follow-up, and leuS and promoter regions were sequenced from all isolates.
# [8] = read-out: susceptibility category of MIC90
# [9] = GSK2251052 breakpoint, read-out: susceptibility category of MIC90
structure (smiles),measurement,setting,value
"NC[C@H]1OB(O)c2c(OCCCO)cccc21 [GSK2251052, (S)-3-aminomethyl-7-(3-hydroxy-propoxy)-3h-benzo[c][1,2]oxaborol-1-ol]",MIC90,E. coli (ESBL),1 µg/mL
same,MIC90,E. coli (ESBL); [8],< 4 µg/mL
same,MIC90,Klebsiella spp. (KPC),2 µg/mL
same,MIC90,Klebsiella spp. (KPC); [8],< 4 µg/mL
same,MIC90,"[1]; 199 isolates, read-out: MIC90",1 µg/mL
same,susceptibility category of MIC90,[1]; [9],< 4 µg/mL
same,MIC90,"[2]; 202 isolates, read-out: MIC90",1 µg/mL
same,susceptibility category of MIC90,[2]; [9],< 4 µg/mL
same,MIC90,[3],0.5 µg/mL
same,MIC90,[3]; [8],< 4 µg/mL
same,MIC90,"Proteus mirabilis (WT); 235 isolates, read-out: MIC90",1 µg/mL
same,susceptibility category of MIC90,Proteus mirabilis (WT); [9],< 4 µg/mL
same,Frequency of Resistance,E. coli ATCC 25922,8 × 10^−8 and 6 × 10^−8 and 7 × 10^−8
same,Frequency of Resistance,K. pneumoniae ATCC 13883,4 × 10^−8 and 5 × 10^−8 and 8 × 10^−7
same,Frequency of Resistance,P. aeruginosa ATCC 27853; 4 X MIC,1 × 10^−7 and 2 × 10^−7
same,Frequency of Resistance,P. aeruginosa ATCC 27853; 10 X MIC,5 × 10^−8 and 9.6 × 10^−8
same,MIC,"[4]; ATCC25922, E wt, leuRS mutation none, read-out: MIC",1 µg/mL
same,MIC,"[4]; ATCC25922, E. coli WT, read-out: GSK2251052 MIC",1 µg/mL
same,MIC,"[4]; ATCC25922, mutant E101, leuRS Y246H",64 µg/mL
same,MIC,"[4]; ATCC25922, mutant E102, leuRS D345G",256 µg/mL
same,MIC,"[4]; ATCC25922, mutant E103, leuRS D345G (ditto mark)",256 µg/mL
same,MIC,"[4]; ATCC25922, mutant E104, leuRS Y246H",64 µg/mL
same,MIC,"[4]; ATCC25922, mutant E105, leuRS D345G",256 µg/mL
same,MIC,"[4]; ATCC25922, mutant E106, leuRS D345G",256 µg/mL
same,MIC,"[4]; ATCC25922, mutant E107, leuRS G229S",> 256 µg/mL
same,MIC,"[4]; ATCC25922, mutant E108, leuRS D345G",256 µg/mL
same,MIC,"[4]; ATCC25922, mutant E109, leuRS D345G (ditto mark)",256 µg/mL
same,MIC,"[4]; ATCC25922, mutant E110, leuRS Duplication D345 Y346",> 256 µg/mL
same,MIC,"[5]; ATCC13883, K wt, leuRS mutation none, read-out: MIC",1 µg/mL
same,MIC,"[5]; ATCC13883, K. pneumoniae WT, read-out: GSK2251052 MIC",1 µg/mL
same,MIC,"[5]; ATCC13883, mutant K104, leuRS D345Y",> 256 µg/mL
same,MIC,"[5]; ATCC13883, mutant K105, leuRS G229R",> 256 µg/mL
same,MIC,"[5]; ATCC13883, mutant K107, leuRS S227F",256 µg/mL
same,MIC,"[5]; ATCC13883, mutant K108, leuRS T248P",> 256 µg/mL
same,MIC,"[5]; ATCC13883, mutant K109, leuRS T248P (ditto mark)",> 256 µg/mL
same,MIC,"[5]; ATCC13883, mutant K110, leuRS V338L",256 µg/mL
same,MIC,"[6]; ATCC27853, P wt, leuRS mutation none, read-out: MIC",4 µg/mL
same,MIC,"[6]; ATCC27853, P. aeruginosa WT, read-out: GSK2251052 MIC",4 µg/mL
same,MIC,"[6]; ATCC27853, mutant P101, leuRS T256P",128 µg/mL
same,MIC,"[6]; ATCC27853, mutant P102, leuRS T256P (ditto mark)",32 µg/mL
same,MIC,"[6]; ATCC27853, mutant P103, leuRS T256P (ditto mark)",64 µg/mL
same,MIC,"[6]; ATCC27853, mutant P104, leuRS T256P (ditto mark)",128 µg/mL
same,MIC,"[6]; ATCC27853, mutant P105, leuRS T256P (ditto mark)",128 µg/mL
same,MIC,"[6]; ATCC27853, mutant P106, leuRS V342M",> 256 µg/mL
same,MIC,"[6]; ATCC27853, mutant P107, leuRS V342M (ditto mark)",128 µg/mL
same,MIC,"[6]; ATCC27853, mutant P108, leuRS T252P",128 µg/mL
same,MIC,"[6]; ATCC27853, mutant P109, leuRS V342M",128 µg/mL
same,MIC,"[6]; ATCC27853, mutant P110, leuRS V342M (ditto mark)",> 256 µg/mL
same,MIC,"[7]; 24 h, subject E. Coli 2, day 1, no LeuRS change",0.25 µg/mL
same,MIC,[7]; 48 h,512 µg/mL
same,MIC,[7]; 72 h,512 µg/mL
same,MIC,[7]; 96 h,512 µg/mL
same,MIC,[7]; 120 h,512 µg/mL
same,MIC,[7]; 144 h,1020 µg/mL
same,MIC,[7]; 168 h,1020 µg/mL
same,MIC,[7]; 192 h,1020 µg/mL
same,MIC,[7]; 216 h,1020 µg/mL
same,MIC,[7]; 240 h,1020 µg/mL
same,MIC,[7]; 264 h,1020 µg/mL
same,MIC,[7]; 288 h,1020 µg/mL
same,MIC,[7]; 312 h,1020 µg/mL
same,MIC,[7],1020 µg/mL
same,GSK2251052 MIC GSK results,"[7]; subject E. Coli 2, Follow-up, 5x R344H, D345A",1024 µg/mL
same,GSK2251052 MIC GSK results,"[7]; subject E. Coli 2, day 9, 4x T247I, D251N",1024 µg/mL
same,GSK2251052 MIC GSK results,"[7]; subject E. Coli 2, day 10, 3x T247I, A323V",1024 µg/mL
same,GSK2251052 MIC GSK results,"[7]; subject E. Coli 2, day 11, 4x R344H, D345A",1024 µg/mL
same,GSK2251052 MIC GSK results,"[7]; subject E. Coli 2, day 12, 4x T247I, A323V",1024 µg/mL
